Data set [1] has as its system human breast cancer BT-474 xenograft. The settings on record: oral, 20 days.
For data set [2], the system named is human gastric cancer NCI-N87 xenograft. Kind of data set: HER2 overexpressing human gastric cancer NCI-N87 xenograft model in nude mice. The class given is in vivo, Balb/c nude mice. The settings on record: oral, 22 days. In general terms: Xenograft models place foreign cells or tissue in a host animal.
The nature of data set [3]: In vivo pharmacokinetics study in rats. The note with it: male, SD, rat, plasma, po, iv 3 mg/kg, intragastric 6 mg/kg, read-out: Absolute bioavailability F. On the procedure:
In Vivo Pharmacokinetics Study in Rats and Mice
5 male SD rats, with weight of 180 to 220 g. The rats were fasted for 12 to 16 hours before the experiment, without restricting drinking water. Two rats were intravenously administrated with dosing solution (3 mL/kg, 1 mg/mL) at a dose of 3 mg/kg, 0.4 mL blood sample was taken from venous plexus of the fundus of the eye into a pre-heparinized centrifuge tube (sodium heparin solution 10 μL/tube) before administration and 2, 5, 15, 30, 60, 90, 120, 240, 360, 480, 720, 1440 min after administration, respectively. Three rats were intragastricly administrated with dosing suspension (8 mL/kg, 0.75 mg/mL) at a dose of 6 mg/kg, 0.4 mL blood sample was taken from venous plexus of the fundus of the eye into a pre-heparinized centrifuge tube (sodium heparin solution 10 μL/tube) before administration and 5, 15, 30, 60, 90, 120, 240, 360, 480, 720, and 1440 min after administration, respectively. […]
Taking 50 μL plasma sample of rat or mouse, adding […] acetonitrile containing internal standard (propranolol, 2.5 ng/ml) to precipitate protein. Vortexing for 10 min, centrifuging at 6000 g for 10 min, the supernatant was taken and diluted with mobile phase in a 96-well plate, the drug concentration in plasma was measured by UPLC/MS-MS. […]

The target of a further data set is T1, CYP2B6 (Homo sapiens, UniProt P20813).
T1 construct: from tissue; host or cells: human liver microsomes
T1 sequence (P20813 1-491): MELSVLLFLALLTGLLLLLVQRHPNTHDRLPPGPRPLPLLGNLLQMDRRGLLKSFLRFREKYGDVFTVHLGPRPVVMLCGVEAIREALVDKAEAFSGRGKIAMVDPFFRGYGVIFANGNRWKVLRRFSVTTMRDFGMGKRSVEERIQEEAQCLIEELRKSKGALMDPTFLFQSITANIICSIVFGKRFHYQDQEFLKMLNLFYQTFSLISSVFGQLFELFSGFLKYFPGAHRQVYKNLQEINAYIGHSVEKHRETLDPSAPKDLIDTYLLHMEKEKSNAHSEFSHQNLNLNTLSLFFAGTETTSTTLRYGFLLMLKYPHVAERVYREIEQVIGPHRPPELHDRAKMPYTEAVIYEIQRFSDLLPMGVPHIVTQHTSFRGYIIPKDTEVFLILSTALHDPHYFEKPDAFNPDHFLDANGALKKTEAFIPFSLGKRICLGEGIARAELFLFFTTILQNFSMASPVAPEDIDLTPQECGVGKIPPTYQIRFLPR
Kind of data set: Direct inhibition of CYP2B6, human liver microsome. The settings on record: probe bupropion, read-out: IC50 2B6 (Bupropion). It is filed as in vitro ADME. On the procedure: Research on Direct Inhibition of CYP2B6 and CYP2C8
100 μL human liver microsome (with final concentration of 0.2 mg/mL) was used for direct inhibition under warm incubation. The positive control system contained NADPH (with final concentration of 1 mmol/L), a mixture of positive inhibitors (ketoconazole 0.05 to 50 μmol/L, montelukast sodium 0.001 to 1 μmol/L), and a substrate mixture (with final concentration of amfepramone 50 μmol/L and paclitaxel 5 μmol/L), and the reaction was terminated after incubation for 20 min. The positive inhibitor was replaced with 0.1 to 100 μmol/L test compound in the test compound group. The reaction was terminated with acetonitrile containing […] internal standard tinidazole (1:3), vortexed for 10 min, centrifuged at 6000×g for 10 min, and 50 μL supernatant was taken and put into a 96-well plate for injection.
(§1) In this experiment, IC50 of inhibition of the compound on the enzyme was calculated by measuring relative production of the probe metabolite. The activity of CYP3A4 was simultaneously characterized by two probes of midazolam and testosterone.
(Liver microsomes are vesicles of endoplasmic reticulum, rich in cytochrome P450 enzymes.)

The next data set addresses T2, CYP3A4 (Homo sapiens, UniProt P08684).
T2 construct: from tissue; host or cells: human liver microsomes
The data set can be described thus: Direct inhibition of CYP3A4, human liver microsome. It is filed as in vitro ADME. On the procedure:
(§2) Research on Direct Inhibition of CYP3A4, CYP2D6, CYP2C9, CYP2C19, CYP1A2
(§3) 100 μL human liver microsome (with final concentration of 0.2 mg/mL) was used for direct inhibition under warm incubation, the positive control system contained NADPH (with final concentration of 1 mmol/L), a mixture of positive inhibitors (ketoconazole 0.01 to 10 μmol/L, quinidine 0.01 to 10 μmol/L, sulfaphenazole 0.1 to 100 μmol/L, tranylcypromine 1 to 1000 μmot/L, α-naphthoflavone 0.01 to 10 μmol/L), and a substrate mixture (with final concentration of midazolam 10 μmol/L, testosterone 100 μmol/L, dextromethorphan 10 μmol/L, diclofenac 20 μmol/L, S-mephenytoin 50 μmol/L, phenacetin 100 μmol/L), and the reaction was terminated after incubation for 20 min. The positive inhibitor was replaced with 0.1 to 100 μmol/L test compound in the test compound group. The reaction was terminated with acetonitrile containing 0.11 μg/mL internal standard tinidazole (1:3), vortexed for 10 min, centrifuged at 6000×g for 10 min, 50 μL supernatant was taken and put into a 96-well plate for injection.
as §1

The target in the next data set is T3, CYP2C9 (Homo sapiens, UniProt P11712).
T3 construct: from tissue; host or cells: human liver microsomes
T3 sequence (P11712 whole entry): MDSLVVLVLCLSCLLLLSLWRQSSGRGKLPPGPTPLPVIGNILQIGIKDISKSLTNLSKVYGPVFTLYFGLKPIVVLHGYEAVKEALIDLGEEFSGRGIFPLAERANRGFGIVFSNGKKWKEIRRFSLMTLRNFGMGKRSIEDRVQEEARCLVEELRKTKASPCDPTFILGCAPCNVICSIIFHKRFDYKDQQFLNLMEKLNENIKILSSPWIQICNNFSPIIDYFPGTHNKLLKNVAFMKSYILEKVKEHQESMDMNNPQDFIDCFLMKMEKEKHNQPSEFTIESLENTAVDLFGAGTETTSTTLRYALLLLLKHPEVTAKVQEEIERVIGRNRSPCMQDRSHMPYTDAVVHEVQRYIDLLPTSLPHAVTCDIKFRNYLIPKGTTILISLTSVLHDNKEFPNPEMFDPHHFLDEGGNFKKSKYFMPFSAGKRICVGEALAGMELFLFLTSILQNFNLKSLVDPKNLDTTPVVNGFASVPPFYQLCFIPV
Kind of data set: Direct inhibition of CYP2C9, human liver microsome. The class given is in vitro ADME. The settings on record: probe diclofenac, read-out: IC50 2C9 (Diclofenac). The protocol: as §2, §3, §1

The mark [4] stands for this setting: probe midazolam, read-out: IC50 3A4 (Midazolam).
The mark [5] stands for this setting: probe testosterone, read-out: IC50 3A4 (testosterone).

SMILES strings stand for the structures. Read-outs that look alike come from different tables or passages of the source.

T2 sequence (P08684 whole entry): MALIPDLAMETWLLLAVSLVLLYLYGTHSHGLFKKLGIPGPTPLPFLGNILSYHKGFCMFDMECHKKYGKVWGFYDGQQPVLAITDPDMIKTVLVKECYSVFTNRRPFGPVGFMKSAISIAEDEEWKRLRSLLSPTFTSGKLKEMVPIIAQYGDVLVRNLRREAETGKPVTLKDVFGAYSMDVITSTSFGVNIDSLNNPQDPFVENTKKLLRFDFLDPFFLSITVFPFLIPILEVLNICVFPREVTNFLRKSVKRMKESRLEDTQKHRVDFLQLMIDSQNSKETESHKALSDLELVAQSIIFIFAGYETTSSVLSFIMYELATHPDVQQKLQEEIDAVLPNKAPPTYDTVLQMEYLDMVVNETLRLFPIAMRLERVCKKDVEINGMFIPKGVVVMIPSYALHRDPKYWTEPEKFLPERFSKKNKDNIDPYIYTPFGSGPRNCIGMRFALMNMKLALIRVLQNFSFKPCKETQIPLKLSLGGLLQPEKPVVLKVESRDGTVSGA

Usually bioavailability stands for the share of a dose that reaches the circulation, judged against a reference dose that is usually intravenous. Usually IC50 stands for the concentration at which inhibition is half-maximal. `Cc1cc(Nc2ncnc3ccc(NC4=NC(C)(C)CO4)cc23)ccc1Oc1cc2nncn2cn1` [Embodiment 4, N^4-(4-([1,2,4]triazolo[4,3-c]pyrimidin-7-yloxy)-3-methylphenyl)-N^6-(4,4-dimethyl-4,5-dihydrooxazol-2-yl)quinazoline-4,6-diamine]: the “tumor volume inhibition rate (GI %)” value in data set [1] (25MPK) is listed as 70.3%; in data set [1] (50MPK), 103.2%; in data set [1] (100MPK), 126.4%; in data set [2] (50MPK) it was 84.3%; in data set [2] (100MPK), 117.9%. In addition, the tolerability result in data set [1] is listed as “good tolerability”. Moreover, the bioavailability in data set [3] stood at 15.4%. In addition, the IC50 is greater than 100 µM on CYP2B6, 25 µM at CYP3A4 (setting [4]), 21 µM on CYP3A4 (setting [5]) and 53 µM on CYP2C9.

Turning to `Cc1cc(Nc2ncnc3ccc(NC4=NC(C)(C)CO4)cc23)ccc1Oc1ccn2ncnc2c1` [ARRY-380, reference compound], the “tumor volume inhibition rate (GI %)” value in data set [1] (100MPK) stood at 108.8%; in data set [2] (50MPK), 59.5%. The bioavailability in data set [3] came to 9.5%. Besides, the IC50 at CYP2B6 is greater than 100 µM; at CYP3A4 (setting [4]) it was 11 µM; at CYP3A4 (setting [5]) it was 11 µM; at CYP2C9 it was 13 µM.

(Values after US10828305B2 (SHANGHAI PHARMACEUTICALS HOLDING CO., LTD., priority 2016, dated 2020).)
